Data taken from PMC3597730, “Novel Phenolic Inhibitors of Small/Intermediate-Conductance Ca^2+-Activated K^+ Channels, KCa3.1 and KCa2.3” (PLoS ONE, 2013).
Values joined by “and” are separate entries in the source; they are usually repeats but may differ in a detail not shown here. Equal entries are not always repeated. “Also recorded” adds a separate entry of the source. Where two headings read alike, the source gives them in different places.

Assays:
[1] = molecular target: T1, KCa3.1 channels in 3T3 fibroblasts (Mus musculus, UniProt O89109); test: Whole-cell patch-clamp of KCa3.1 currents in 3T3 fibroblasts; format: cell-based; settings: for remaining activity at 10 µM: read-out: % of control at 10 µM; for remaining activity at 50 µM: compound 50 µM, read-out: % of control at 50 µM; for KCa3.1 blocking effect (in words) / EC50: whole-cell; for KCa3.1 blocking effect (in words): concentrations up to 50 µM as in Table 1; for remaining activity at 1 µM: read-out: % of control at 1 µM
T1 construct: KCa3.1 channels in 3T3 fibroblasts; endogenous in cells; host or cells: 3T3-L1 mouse embryonic fibroblasts

[2] = molecular target: T2, cloned human KCa3.1 channel (Homo sapiens, UniProt O15554); test: Inside-out patch recordings from hKCa3.1-overexpressing HEK293 cells; format: biochemical; settings: inside-out patches; compound 1 µM
T2 construct: expressed in transfected cells; gift of Khaled Houamed, University of Chicago

hKCa2.3 = molecular target: T3, hKCa2.3 (Homo sapiens, UniProt Q9UGI6); test: Whole-cell patch-clamp of hKCa2.3 in COS7 cells; format: cell-based; settings: for remaining activity at 1 µM: COS-7, hKCa2.3, compound 1 µM, mean ± SEM, n ≥ 3, read-out: % of control at 1 µM; for KCa2.3 blocking effect (in words): micromolar concentrations
T3 construct: expressed in transfected cells; host or cells: COS7
T3 sequence (Q9UGI6 whole entry): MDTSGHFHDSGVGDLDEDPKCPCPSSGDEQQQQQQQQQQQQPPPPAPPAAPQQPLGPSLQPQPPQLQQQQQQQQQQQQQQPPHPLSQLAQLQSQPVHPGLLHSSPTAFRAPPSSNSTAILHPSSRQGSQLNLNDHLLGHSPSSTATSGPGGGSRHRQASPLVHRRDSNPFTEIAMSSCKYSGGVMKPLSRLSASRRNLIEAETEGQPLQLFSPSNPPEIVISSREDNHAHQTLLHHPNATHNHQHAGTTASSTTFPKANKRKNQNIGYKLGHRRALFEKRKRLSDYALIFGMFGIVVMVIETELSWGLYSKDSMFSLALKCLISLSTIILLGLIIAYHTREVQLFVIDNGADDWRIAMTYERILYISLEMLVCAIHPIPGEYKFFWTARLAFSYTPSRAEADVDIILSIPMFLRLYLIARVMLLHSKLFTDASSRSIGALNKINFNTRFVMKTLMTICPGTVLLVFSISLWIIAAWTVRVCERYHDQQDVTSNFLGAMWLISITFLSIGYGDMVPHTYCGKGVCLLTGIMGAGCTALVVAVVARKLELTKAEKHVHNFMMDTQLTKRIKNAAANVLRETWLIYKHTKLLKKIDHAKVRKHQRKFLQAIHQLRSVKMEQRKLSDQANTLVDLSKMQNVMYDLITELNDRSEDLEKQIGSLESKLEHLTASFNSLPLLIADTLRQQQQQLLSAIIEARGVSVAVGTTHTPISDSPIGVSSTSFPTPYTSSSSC

hKv1.2 = molecular target: T4, hKv1.2 (Homo sapiens, UniProt P16389); test: Whole-cell patch-clamp of cloned hKv1.2; format: cell-based; settings: for remaining activity at 1 µM: hKv1.2, compound 1 µM, read-out: % of control at 1 µM
T4 construct: expressed in transfected cells; host or cells: B82 murine fibroblasts (Methods)
T4 sequence (P16389 whole entry): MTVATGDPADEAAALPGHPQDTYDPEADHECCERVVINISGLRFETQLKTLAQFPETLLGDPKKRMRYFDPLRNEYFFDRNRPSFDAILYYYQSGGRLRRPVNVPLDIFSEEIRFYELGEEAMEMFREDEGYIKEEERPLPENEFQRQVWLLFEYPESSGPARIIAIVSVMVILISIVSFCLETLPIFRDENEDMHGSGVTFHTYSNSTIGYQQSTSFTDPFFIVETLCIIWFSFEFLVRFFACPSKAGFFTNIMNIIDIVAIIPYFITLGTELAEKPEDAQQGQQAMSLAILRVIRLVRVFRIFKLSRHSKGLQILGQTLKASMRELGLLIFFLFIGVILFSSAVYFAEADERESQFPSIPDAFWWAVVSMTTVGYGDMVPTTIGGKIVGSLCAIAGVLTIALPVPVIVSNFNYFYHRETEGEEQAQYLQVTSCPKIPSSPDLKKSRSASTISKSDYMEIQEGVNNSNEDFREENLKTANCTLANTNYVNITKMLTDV

[3] = system: mixed KCa3.1 and KCa2.3 currents in PCAEC; test: Whole-cell patch-clamp of KCa currents in porcine coronary artery endothelial cells; format: cell-based; settings: whole-cell, compound 1 µM
[4] = system: porcine coronary artery rings; test: Isometric myography: 5-HT-induced contractions; settings: for Δg, 1st stimulation / Δg, 2nd stimulation: 1 µM 5-HT
Procedure: (§1) Myography on porcine coronary artery rings was performed as described in detail previously, [30]. In brief, left anterior descending arteries or posterior descending arteries were cut into rings (3 mm long) and rings were mounted onto a isometric force transducer (Pioden UF1, Graham Bell House, Canterbury, UK). The organ bath contained a 5 ml Krebs buffer maintained at 37°C and gassed with 95% O2/5% CO2. The composition of the Krebs buffer was as follows (in mM): NaCl 120, NaHCO3 24.5, CaCl2 2.4, KCl 4.7, MgSO4 1.2, KH2PO4 1 and glucose 5.6, pH 7.4. Each ring was passively stretched to an initial tension of 1 gr (10 mN). Changes in force were monitored and recorded on a computer using a Mac Lab System/8e program (AD Instruments Inc, Milford, Ma, USA), and digitalized at a sample rate of 0.5 sec.
(§2) To measure specifically endothelium-derived hyperpolarization-mediated vasorelaxation (EDH), the NO-synthase blocker, Nω-nitro-L-arginine (L-NNA, 300 µM), and the cyclooxygenase blocker, indomethacin (10 µM), were added to the buffer. Preparations were washed three times and were allowed to equilibrate for 40 min. Within this period, the incubation medium was renewed every 20 min. […] Ten min later, bradykinin (1 µM) was added for another 10 min, followed by washout (over at least 10 min). This protocol was repeated (2nd stimulation). Thereafter, we performed a 3rd round of pre-contraction and vasorelaxation, but using the vasospasmic thromboxane analogue U46619 (0.2 µM) as vasocontracting agent. At the end of the experiments, rings were allowed to contract maximally in a KCl (60 mM) buffer for 10 min followed by addition of the compounds. Finally, sodium nitroprusside (10 µM) was added to achieve maximal endothelium-independent vasorelaxation.
(§3) DMSO as the vehicle had no vasoactive effect per se on the tissue. Other compounds were dissolved in Milli-Q water.
(§4) For data analysis, we determined absolute increases in force to 5-HT, U46619, or 60 mM KCl. Bradykinin-induced relaxations were determined as % change of pre-contraction to either vasocontracting compound and relative to the fully relaxed state (in the absence of the vasocontracting agent).

[5] = system: porcine coronary artery rings; test: Isometric myography: bradykinin-induced (EDH) relaxation; settings: for % relaxation, 5-HT-precontraction / % relaxation, U46619-precontraction: 1 µM bradykinin
Procedure: as §1, §2, §3, §4

[6] = system: porcine coronary artery rings; test: Isometric myography: U46619-induced contractions; settings: 0.2 µM U46619
Procedure: as §1, §2, §3, §4

[7] = system: porcine coronary artery rings; test: Isometric myography: endothelium-independent relaxation to sodium nitroprusside; settings: pre-contracted by 60 mM K+
Procedure: as §1
as §2, with “vasorelaxation. […]” for “vasorelaxation.”
as §4

[8] = system: porcine coronary artery rings; test: Isometric myography: contractions to 60 mM K+
Procedure: as §1
as §2, with “vasorelaxation. […]” for “vasorelaxation.”
as §4

[9] = KCa3.1 whole-cell current, 3T3 fibroblasts, 1 µM free Ca2+ in pipette, compound 10 µM, mean ± SEM, n ≥3
[10] = KCa3.1 whole-cell current, 3T3 fibroblasts, 1 µM free Ca2+ in pipette, mean ± SEM, n ≥3
[11] = KCa3.1 whole-cell current, 3T3 fibroblasts, 1 µM free Ca2+ in pipette, compound 1 µM, mean ± SEM, n ≥3
[12] = 3T3 fibroblasts, read-out: EC50 of KCa3.1 inhibition
[13] = EC50 of KCa3.1 inhibition, 3T3 fibroblasts
[14] = 13b 0.5 µM, SKA-31 1 µM, alone or combined
[15] = SKA-31 10 µM, alone or with 13b 0.5 µM

SMILES: Cc1ccc(=O)n(-c2ccccc2)c1 [Pirfenidone, methyl-1-phenylpyridin-2(1H)-one, reference compound]
- remaining activity at 10 µM [1, 9]: 98 ± 5%
- remaining activity at 50 µM [1, 10]: 99 ± 14%
- KCa3.1 blocking effect (in words) ([1]; 3T3 fibroblasts): no effects

SMILES: COc1cc(C(=O)OCc2cc(COC(=O)c3ccc(O)c(OC)c3)cc(COC(=O)c3ccc(O)c(OC)c3)c2)ccc1O [Compound 13a, [3,5-bis[(4-hydroxy-3-methoxy-benzoyl)oxymethyl]phenyl]methyl4-hydroxy-3-methoxy-benzoate]
- remaining activity at 1 µM [1, 11]: 78 ± 6%
- hKCa3.1 blocking effect (in words) [2]: no or minor blocking effects; also recorded: did not block
- remaining activity at 1 µM (hKCa2.3): 98 ± 1%
- KCa2.3 blocking effect (in words) (hKCa2.3): no blocking effects
- block of hKv1.2 currents (hKv1.2; 1 µM): 50%
- remaining activity at 1 µM (hKv1.2): 46 ± 3%

SMILES: Oc1ccc(/C=C/c2cc(O)cc(O)c2)cc1 [Resveratrol, 5-[(E)-2-(4-Hydroxyphenyl)vinyl]benzene-1,3-diol]
- EC50 [1, 12]: 10 µM and ~10 µM and 1 to 10 µM

SMILES: COc1cc(/C=C/C(=O)O)ccc1O [Ferulic Acid, (E)-3-(4-hydroxy-3-methoxyphenyl)propenoic acid]
- EC50 [1, 13]: > 10 µM
- remaining activity at 10 µM [1, 9]: 87 ± 8%
- remaining activity at 50 µM [1, 10]: 32 ± 4%

SMILES: Clc1ccccc1C(c1ccccc1)(c1ccccc1)n1cccn1 [TRAM-34, 1-[(2-chlorophenyl) (diphenyl)methyl]-1H-pyrazole, reference compound]
- remaining activity at 1 µM [1]: 1 ± 1%
- KCa3.1 blocking effect (in words) ([1]; 3T3 fibroblasts): completely inhibited
- KCa current, % of control [3]: 58±4%

SMILES: Nc1ccc(O)c(C(=O)O)c1 [Mesalamine, 5-amino-2-hydroxybenzoic acid, reference compound]
- remaining activity at 1 µM [1, 11]: 72 ± 6%
- remaining activity at 10 µM [1, 9]: 53 ± 7%
- remaining activity at 50 µM [1, 10]: 46 ± 3%
- EC50 [1, 12]: ≥ 10 µM and 26 µM

SMILES: Cc1cccc(Nc2ccccc2C(=O)O)c1C [Mefenamic Acid, 2-((2,3-dimethylphenyl)amino)benzoic acid, reference compound]
- remaining activity at 1 µM [1, 11]: 117 ± 4%
- remaining activity at 10 µM [1, 9]: 136 ± 28%
- KCa3.1 blocking effect (in words) ([1]; 3T3 fibroblasts): no blocking effects

SMILES: O=C(O)c1cc(O)c(O)c(O)c1 [Gallic acid, 3,4,5-trihydroxybenzoic acid]
- remaining activity at 10 µM [1, 9]: 101 ± 6%
- KCa3.1 blocking effect (in words) ([1]; 3T3 fibroblasts): weak or no blocking effects and no

SMILES: Nc1nc2c(ccc3ccccc32)s1 [SKA-31, naphtho[1,2-d]thiazol-2-ylamine]
- Δg, 1st stimulation [4, 14]: 0.4 ± 0.1 g
- Δg, 2nd stimulation [4, 14]: 0.5 ± 0.1 g
- Δg, 1st stimulation [4, 15]: 0.4 ± 0.1 g
- Δg, 2nd stimulation [4, 15]: 0.23 ± 0.02 g
- change of amplitude of 5-HT contraction vs. vehicle, 2nd stimulation [4, 15]: −44%
- % relaxation, 5-HT-precontraction [5, 14]: 65±6%
- % relaxation, U46619-precontraction [5, 14]: 5% and 5±1%
- % relaxation, 5-HT-precontraction [5, 15]: 47±8%
- % relaxation, U46619-precontraction [5, 15]: 10% and 10±2%
- change of bradykinin relaxation vs. vehicle, 5-HT-precontracted rings [5, 14]: +110%
- change of bradykinin relaxation vs. vehicle, 5-HT-precontracted rings [5, 15]: +52%
- Δg [6, 14]: 1.9 ± 0.5 g
- Δg [6, 15]: 1.7 ± 0.2 g
- % relaxation to 10 µM SNP [7, 14]: 82±8%
- % relaxation to 10 µM SNP [7, 15]: 80±5%
- Δg, contraction to 60 mM K+ [8, 14]: 3.2 ± 0.5 g
- Δg, contraction to 60 mM K+ [8, 15]: 2.5 ± 0.4 g

SMILES: OCCc1ccc(O)c(O)c1 [Hydroxytyrosol]
- remaining activity at 1 µM [1, 11]: 117 ± 9%
- remaining activity at 10 µM [1, 9]: 108 ± 15%
- KCa3.1 blocking effect (in words) ([1]; 3T3 fibroblasts): weak or no blocking effects and no

SMILES: O=C(OC[C@H]1O[C@@H](OC(=O)c2cc(O)c(O)c(O)c2)[C@H](OC(=O)c2cc(O)c(O)c(O)c2)[C@@H](OC(=O)c2cc(O)c(O)c(O)c2)[C@@H]1OC(=O)c1cc(O)c(O)c(O)c1)c1cc(O)c(O)c(O)c1 [1,2,3,4,6-pentagalloyl glucose, [(2S,3R,4S,5R,6R)-2,3,5-tris[(3,4,5-trihydroxybenzoyl)oxy]-6-[(3,4,5-trihydroxybenzoyl)oxymethyl]oxan-4-yl] 3,4,5-trihydroxybenzoate]
- remaining activity at 10 µM [1, 9]: 102 ± 6%
- KCa3.1 blocking effect (in words) ([1]; 3T3 fibroblasts): no

SMILES: COc1cc(C(=O)O)ccc1O [Vanillic Acid, 4-hydroxy-3-methoxybenzoic acid]
- EC50 [1, 13]: > 10 µM
- remaining activity at 10 µM [1, 9]: 78 ± 11%
- remaining activity at 50 µM [1, 10]: 46 ± 12%
- KCa3.1 blocking effect (in words) ([1]; 3T3 fibroblasts): weak or no blocking effects; also recorded: Weak inhibition

SMILES: O=C(OCc1cc(COC(=O)c2ccc(O)c(Cl)c2)cc(COC(=O)c2ccc(O)c(Cl)c2)c1)c1ccc(O)c(Cl)c1 [Compound 13c, [3,5-bis[(3-chloro-4-hydroxy-benzoyl)oxymethyl]phenyl]methyl3-chloro-4-hydroxy-benzoate]
- remaining activity at 1 µM [1, 11]: 61 ± 17%
- KCa3.1 blocking effect (in words) ([1]; 3T3 fibroblasts): weak to moderate blocking efficiency
- hKCa3.1 blocking effect (in words) [2]: no or minor blocking effects; also recorded: did not block
- remaining activity at 1 µM (hKCa2.3): 92 ± 4%
- KCa2.3 blocking effect (in words) (hKCa2.3): no blocking effects
- hKv1.2 blocking effect (in words) (hKv1.2; flufenamic acid and caffeic acid 10 and 50 µM, 13c 1 µM): no effect
- remaining activity at 1 µM (hKv1.2): 104 ± 3%

SMILES: O=C(O)c1cccnc1Nc1cccc(C(F)(F)F)c1 [Niflumic Acid, reference compound]
- remaining activity at 10 µM [1, 9]: 106 ± 7%
- remaining activity at 50 µM [1, 10]: 81 ± 4%
- KCa3.1 blocking effect (in words) ([1]; 3T3 fibroblasts): no blocking activity; also recorded: no blocking effects

SMILES: CC(=O)Oc1ccccc1C(=O)O [2-acetyloxybenzoic acid, reference compound]
- remaining activity at 10 µM [1, 9]: 108 ± 5%
- remaining activity at 50 µM [1, 10]: 104 ± 7%
- KCa3.1 blocking effect (in words) ([1]; 3T3 fibroblasts): no effect

SMILES: NC(=O)C[S+]([O-])C(c1ccccc1)c1ccccc1 (stereo not drawn) [Modafinil, 2-benzhydrylsulfinylacetamide, reference compound]
- EC50 [1, 13]: > 1 µM
- remaining activity at 10 µM [1]: 33 ± 6%

SMILES: O=C(/C=C/c1ccc(O)c(O)c1)OCCc1ccccc1 [Caffeic acid phenethyl ester, 2-phenylethyl (E)-3-(3,4-dihydroxyphenyl)propenoate]
- remaining activity at 10 µM [1, 9]: 94 ± 6%
- KCa3.1 blocking effect (in words) ([1]; 3T3 fibroblasts): no

SMILES: c1cc2cc(c1)C[n+]1ccc(c3ccccc31)NCc1ccc(cc1)CNc1cc[n+](c3ccccc13)C2 [UCL1684, 6,10-diaza-3(1,3),8(1,4)-dibenzena-1,5(1,4)-diquinolinacyclodecaphane, reference compound]
- % of control at 100 nM (hKCa2.3; hKCa2.3 current pre-activated by 1 µM SKA-31, n = 4): 2±1%
